How the values were obtained:
Type in all cases: in vivo
Septoria nodorum = experiment: Test C: wheat glume blotch, preventive spray on wheat seedlings; details: 200 ppm, 100 = 100% disease control, 0 = no control relative to controls; for pest or weed control at 200 ppm: Parastagonospora nodorum, 216 h, read-out: Test C disease control rating
Source text: (§1) General protocol for preparing test suspensions for Tests A-R: The test compounds were first dissolved in acetone in an amount equal to 3% of the final volume and then suspended at the desired concentration (in ppm) in acetone and purified water (50/50 mix) containing 250 ppm of the surfactant Trem® 014 (polyhydric alcohol esters). The resulting test suspensions were then used in tests A-R. In Tests A-M, compounds were sprayed as a 200 ppm test suspension (equivalent to a rate of 500 g/ha) or as a 40 ppm test suspension to the point of runoff on the test plants. In Tests N-R, compounds were sprayed as a 100 g/ha test suspension (equivalent to a rate of 100 ppm) on the test plants at an application volume of 1000 L/ha. The test suspension was sprayed to the point of run-off on wheat seedlings.

[1] = tested on: Puccinia recondita f. sp. tritici; experiment: Test B: wheat leaf rust, preventive spray on wheat seedlings; details: 200 ppm, 100 = 100% disease control, 0 = no control relative to controls; for pest or weed control at 200 ppm: Puccinia recondita, 192 h, read-out: Test B disease control rating
Source text: as §1

Septoria tritici = experiment: Test D: wheat leaf blotch, preventive spray on wheat seedlings; details: 200 ppm, 100 = 100% disease control, 0 = no control relative to controls; for pest or weed control at 200 ppm: Zymoseptoria tritici, 504 h, read-out: Test D disease control rating
Source text: as §1

Fusarium graminearum = experiment: whole plant or invertebrate; details: for Test E disease control rating: 200 ppm, 100 = 100% disease control, 0 = no control relative to controls; for pest or weed control at 200 ppm: Fusarium graminearum, in Triticum aestivum, 192 h, read-out: Test E disease control rating
[2] = tested on: Erysiphe graminis f. sp. tritici; experiment: Test A: wheat powdery mildew, preventive spray on wheat seedlings; details: 200 ppm, 100 = 100% disease control, 0 = no control relative to controls; for pest or weed control at 200 ppm: Blumeria graminis, 192 h, read-out: Test A disease control rating
Source text: as §1

Botrytis cinerea = experiment: Test F: tomato Botrytis, preventive spray on tomato seedlings; details: 200 ppm, 100 = 100% disease control, 0 = no control relative to controls; for pest or weed control at 200 ppm: Botrytis cinerea, 120 h, read-out: Test F disease control rating
Source text: as §1, with “tomato” for “wheat”

[3] = tested on: Colletotrichum orbiculare; experiment: Test I: cucumber Colletotrichum anthracnose, preventive spray on cucumber seedlings; details: 100 = 100% disease control, 0 = no control relative to controls; for Test I disease control rating: 200 ppm; for pest or weed control at 200 ppm: Colletotrichum orbiculare, 144 h, read-out: Test I disease control rating
Source text: as §1, with “cucumber” for “wheat”

Structure (SMILES) | Test C disease control rating (Septoria nodorum) [%] | Test B disease control rating [1] [%] | Test D disease control rating (Septoria tritici) [%] | Test E disease control rating (Fusarium graminearum) [%] | Test A disease control rating [2] [%] | Test F disease control rating (Botrytis cinerea) [%] | Test I disease control rating [3] [%] | pest or weed control at 200 ppm (Septoria nodorum) [%] | pest or weed control at 200 ppm [1] [%] | pest or weed control at 200 ppm (Septoria tritici) [%] | pest or weed control at 200 ppm (Fusarium graminearum) [%] | pest or weed control at 200 ppm [2] [%] | pest or weed control at 200 ppm (Botrytis cinerea) [%] | pest or weed control at 200 ppm [3] [%]
Fc1cccc(Nc2ncnc(-c3ccnc(NC4CCOCC4)n3)n2)c1 [Compound 3] | 100 | 96 | 67 | 27 | 64 | 0 | 94 |  |  |  |  |  |  | 
Clc1cccc(Nc2ncnc(-c3ccnc(NC4CCOCC4)n3)n2)c1 [Compound 4, N-(3-chlorophenyl)-4-[2-[(tetrahydro-2H-pyran-4-yl)amino]-4-pyrimidinyl]-1,3,5-triazin-2-amine] |  |  |  |  |  |  |  | 99 | 91 | 11 | 0 | 0 | 0 | 66
COC[C@H](C)Nc1nccc(-c2ncnc(Nc3cncc(F)c3)n2)n1 [Compound 35] | 98 | 100 | 7 | 98 | 72 | 91 |  |  |  |  |  |  |  | 
COCC(C)Nc1nccc(-c2ccnc(Nc3cccc(C(=O)OC)c3)c2)n1 (centres unmarked) [Compound 52] | 90 | 94 | 31 | 0 | 0 | 98 | 0 |  |  |  |  |  |  | 
COCC(C)Nc1nccc(-c2ccnc(Nc3ccccc3F)c2)n1 (centres unmarked) [Compound 53] | 96 | 98 | 41 | 0 | 88 | 99 | 26 |  |  |  |  |  |  | 
COCC(C)Nc1nccc(-c2ccnc(Nc3ccnc(Cl)c3)c2)n1 (centres unmarked) [Compound 54] | 64 | 96 | 35 | 0 | 0 | 85 | 0 |  |  |  |  |  |  | 
CSCCNc1nccc(-c2ccnc(Nc3cccc(F)c3)c2)n1 [Compound 55] | 78 | 95 | 20 | 0 | 0 | 0 | 0 |  |  |  |  |  |  | 
C[C@H](CO)Nc1nccc(-c2ccnc(Nc3cccc(F)c3)c2)n1 [Compound 57] | 51 | 95 | 9 | 0 | 0 | 0 | 0 |  |  |  |  |  |  | 
COCCNc1nccc(-c2ccnc(Nc3cccc(F)c3)c2)n1 [Compound 58] | 99 | 98 | 36 | 0 | 44 | 86 | 24 |  |  |  |  |  |  | 
CCCC(C)Nc1nccc(-c2ccnc(Nc3cccc(F)c3)c2)n1 (centres unmarked) [Compound 59] | 99 |  | 0 | 0 | 87 | 57 | 0 |  |  |  |  |  |  | 
CC(C)Nc1nccc(-c2ccnc(Nc3cccc(F)c3)c2)n1 [Compound 60] | 100 | 95 | 18 | 0 | 97 | 61 | 0 |  |  |  |  |  |  | 
CCNc1nccc(-c2ccnc(Nc3cccc(F)c3)c2)n1 [Compound 61] | 99 | 96 | 32 | 0 | 0 | 0 | 0 |  |  |  |  |  |  | 
Fc1cccc(Nc2cc(-c3ccnc(NC4CCCC4)n3)ccn2)c1 [Compound 62, N-cyclopentyl-4-[2-[(3-fluorophenyl)amino]-4-pyridinyl]-2-pyrimidinamine] |  |  |  |  |  |  |  | 0 | 94 | 14 | 0 | 0 | 0 | 0
COCC(C)Nc1nccc(-c2ccnc(Nc3ccc(C#N)cc3)c2)n1 (centres unmarked) [Compound 63] | 0 | 80 | 41 | 0 | 0 | 0 | 90 |  |  |  |  |  |  | 
COCCCNc1nccc(-c2ccnc(Nc3cccc(F)c3)c2)n1 [Compound 64] | 97 | 94 | 95 | 0 | 0 | 0 | 92 |  |  |  |  |  |  | 
Fc1cccc(Nc2cc(-c3ccnc(NC4CC4)n3)ccn2)c1 [Compound 65] | 96 | 80 | 0 | 0 | 46 | 0 | 83 |  |  |  |  |  |  | 
CCNNc1nccc(-c2ccnc(Nc3cccc(F)c3)c2)n1 [Compound 66] | 99 | 85 | 92 | 64 | 0 | 84 |  |  |  |  |  |  |  | 
COC[C@@H](C)Nc1nccc(-c2ccnc(Nc3cccc(F)c3)c2)n1 [Compound 68] | 99 | 95 | 96 | 0 | 0 | 93 |  |  |  |  |  |  |  | 
Clc1cccc(Nc2cc(-c3ccnc(NC4CCOCC4)n3)ccn2)c1 [Compound 69, 4-[2-[(3-chlorophenyl)amino]-4-pyridinyl]-N-(tetrahydro-2H-pyran-4-yl)-2-pyrimidinamine] |  |  |  |  |  |  |  | 97 | 94 | 77 | 0 | 91 | 85 | 0
COCC(C)Nc1nccc(-c2ccnc(Nc3c(F)ccc(F)c3F)c2)n1 (centres unmarked) [Compound 70] | 99 | 98 | 17 | 84 | 95 | 97 | 98 |  |  |  |  |  |  | 
Fc1cccc(Nc2cc(-c3ccnc(N[C@H]4CCOC4)n3)ccn2)c1 [Compound 71] | 99 | 94 | 25 | 0 | 0 | 77 | 46 |  |  |  |  |  |  | 

— US8026359B2, “Fungicidal heterocyclic amines” (E.I. du Pont de Nemours and Company, priority 2007, dated 2011)
